# Source: patent US20180177219A1, “FAST-DISSOLVING CO-CRYSTALLINE LACTOSE” (NESTEC S.A., priority 2015, published 2018)
# How the values were obtained:
# Assay type in all cases: physicochemical
# [1] = Dissolution of an individual crystal filmed under a microscope, no agitation; conditions: room temperature; for time to complete dissolution of an individual crystal: crystals comparable in size and morphology
# Experimental: The dissolution of the individual crystals was filmed under a microscope using a high-resolution camera and film-stills of the progressing dissolution were analyzed (area of remaining solid material) until complete dissolution was achieved.
# Dissolution kinetics were measured over a time period of 0 to 36 seconds.
# The dissolution kinetics of an individual α-lactose.CaCl2.7 H2O co-crystal (▪) in comparison to α-lactose monohydrate (▴) in water were determined. Dissolution kinetics were measured over a time period of 0 to 36 seconds at room temperature without stirring.
# [2] = Dissolution kinetics by online refractometry (normalized refractive index), stirred; conditions: particle size 60-90 μm; for amount of solid dissolved in water within 20 seconds: 60 ml, stirring 500 rpm, ambient temperature (20° C.)
# Experimental: Dissolution kinetics were measured by online-refractometry in water over a time period of 0 to 100 seconds while stirring at 500 rpm at ambient temperature (20° C.).
# The dissolution kinetics of 2 g of lactose.CaCl2.7 H2O co-crystals in water (♦) in comparison to 1.24 g of pure lactose monohydrate in water (▪), 1.24 g of lactose monohydrate in 0.52 g calcium chloride solution (▴) and a physical mixture of 1.24 g of lactose monohydrate and 0.52 g of calcium chloride dihydrate in water (X) were measured by refractometry at room temperature over a time period of 0 to 100 seconds while stirring the solution.
# [3] = Dynamic vapor sorption (moisture tolerance); conditions: 25° C., 120 hours, relative humidity augmented stepwise
# Experimental: The physical mixture contains the same molar quantities of lactose and calcium chloride as compared to the co-crystalline material. The straight (horizontal) line corresponds to an uptake of five equivalents of water. dm: mass gain in percent; RH: relative humidity in percent.
# Dynamic vapor sorption experiments were performed for lactose.calcium salt co-crystals in comparison to a physical mixture of lactose monohydrate and calcium chloride dihydrate. The physical mixture contains the same molar quantities of lactose and calcium chloride as compared to the co-crystalline material.
# Measurements were conducted over 120 hours at a temperature of 25° C. and relative humidity was augmented stepwise until the samples fully liquefied.
SMILES,"time for complete dissolution relative to lactose.CaCl2.7 H2O co-crystal (times as long) ([1]; individual crystal, liquid phase not agitated)","time to complete dissolution of an individual crystal ([1]; water, without stirring)","amount of solid dissolved in calcium chloride solution within 20 seconds ([2]; 1.24 g in 0.52 g calcium chloride solution, stirring, room temperature)",amount of solid dissolved in water within 20 seconds [2],"dissolution speed relative to lactose monohydrate (times faster) ([1]; individual crystal, water, without stirring)",moisture absorption behaviour [3],moisture tolerance compared to physical mixture of lactose monohydrate and calcium chloride dihydrate [3]
"O.OC[C@H]1O[C@@H](O[C@H]2[C@H](O)[C@@H](O)C(O)O[C@@H]2CO)[C@H](O)[C@@H](O)[C@H]1O (stereo partly drawn) [lactose monohydrate, reference compound]",roughly seven,about 36 seconds,about 30%,about 20%,,,
"O.O.O.O.O.O.O.OC[C@H]1O[C@@H](O[C@H]2[C@H](O)[C@@H](O)C(O)O[C@@H]2CO)[C@H](O)[C@@H](O)[C@H]1O.[Ca+2].[Cl-].[Cl-] (stereo partly drawn) [lactose.CaCl2.7 H2O co-crystals, lactose.calcium chloride.7 H2O]",,about 2.5 seconds,,about 85%,14 to 15 times,gradually continued to absorb moisture in parallel with augmentation of relative humidity,improved moisture tolerance
